Reference: US8703172B2, “Sphingolipids for improvement of the composition of the intestinal flora” (Nederlandse Organizatie voor …, priority 2003, dated 2014)
≈ marks a conversion by molar mass, not a printed value. Entries after “also recorded” stand apart in the source; their conditions may differ. Like-named read-outs stand apart in the source and are kept apart here.

What was measured:
[1] = tested on: Salmonella enteritidis; assay: MIC on agar plates (TSA); assay type: cell-based; conditions: TSA agar plate, aerobic, 48 hours at 30° C.; for MIC: Salmonella enterica, ENTERITIDIS, read-out: MIC, S. enteritidis
[2] = tested on: Pseudomonas aeruginosa; assay: MIC on agar plates (TSA); assay type: cell-based; conditions: TSA agar plate, aerobic, 48 hours at 30° C.; for MIC: Pseudomonas aeruginosa, read-out: MIC, P. aeruginosa
[3] = tested on: Bifidobacterium adolescentis; assay: MIC on agar plates (RCBA); assay type: cell-based; conditions: RCBA agar plate, anaerobic, 72 hours at 30° C.; for MIC: Bifidobacterium adolescentis, read-out: MIC, B. adolescentis
[4] = tested on: Bifidobacterium spp.; assay: MIC on agar plates (RCBA); assay type: cell-based; conditions: RCBA agar plate, anaerobic, 72 hours at 30° C.; for MIC: Bifidobacterium, read-out: MIC, Bif. spp.
[5] = tested on: Fusobacterium nucleatum; assay: MIC on agar plates (RCBA); assay type: cell-based; conditions: for MIC: Fusobacterium nucleatum, read-out: MIC, F. nucleatum
[6] = tested on: Bacteroides fragilis; assay: MIC on agar plates (RCBA); assay type: cell-based; conditions: RCBA agar plate, anaerobic, 72 hours at 30° C.; for MIC: Bacteroides fragilis, read-out: MIC, B. fragilis
[7] = tested on: Clostridium spp.; assay: MIC on agar plates (RCBA); assay type: cell-based; conditions: for MIC: Clostridium, 72 h, read-out: MIC, C. spp.
[8] = tested on: bacteria tested; assay: Antimicrobial activity on agar plates, summary for the bacteria tested; assay type: cell-based
[9] = tested on: Listeria monocytogenes; assay: MIC on agar plates (TSA); conditions: for MIC, L. monocytogenes: TSA agar plate, aerobic, 48 hours at 30° C.; for MIC: Listeria monocytogenes, 48 h, read-out: MIC, L. monocytogenes
[10] = tested on: Streptococcus suis type 2; assay: MIC on agar plates (TSA); conditions: for MIC, S. suis type 2: TSA agar plate, aerobic, 48 hours at 30° C.; for MIC: Streptococcus suis, TYPE2, 48 h, read-out: MIC, S. suis type 2
[11] = tested on: Bacillus cereus; assay: MIC on agar plates (TSA); conditions: for MIC, B. cereus: TSA agar plate, aerobic, 48 hours at 30° C.; for MIC: Bacillus cereus, 48 h, read-out: MIC, B. cereus
[12] = tested on: Leuconostoc carnosum; assay: MIC on agar plates (MRSA); conditions: for MIC, L. carnosum: agar plate, anaerobic, 72 hours at 30° C.; for MIC: 72 h, read-out: MIC, L. carnosum
[13] = tested on: Lactobacillus sake; assay: MIC on agar plates (MRSA); conditions: for MIC, L. sake: anaerobic, 72 hours at 30° C.; for MIC: Latilactobacillus sakei, 72 h, read-out: MIC, L. sake
[14] = tested on: Lactobacillus acidophilus; assay: MIC on agar plates (MRSA); conditions: for MIC, L. acidophilus: anaerobic, 72 hours at 30° C.; for MIC: Lactobacillus acidophilus, 72 h, read-out: MIC, L. acidophilus
[15] = tested on: Lactobacillus casei; assay: MIC on agar plates (MRSA); conditions: for MIC, L. casei: MRSA agar plate, anaerobic, 72 hours at 30° C.; for MIC: Lacticaseibacillus casei, 72 h, read-out: MIC, L. casei
[16] = tested on: Enterococcus hirae; assay: MIC on agar plates (MRSA); conditions: for MIC, E. hirae: MRSA agar plate, anaerobic, 72 hours at 30° C.; for MIC: Enterococcus hirae, 72 h, read-out: MIC, E. hirae
[17] = tested on: Gram-positive bacteria; assay: Antimicrobial activity on agar plates, summary for Gram-positive bacteria; assay type: cell-based
[18] = pig, in vivo
Protocol: (§1) Because the sphingolipids need to be transported together with the food to the small and large intestines to be able to be active there, the transport of phytosphingosine and sphinganine in the stomach and small intestine model TIM-1 was tested. Also, the transport of phytosphingosine in a fistulated pig was tested after the animal had been fed with feed containing phytosphingosine (1 wt. %). In a fistulated pig, the small intestine is uncoupled from the large intestine so that the digested feed at the end of the small intestine can be collected.
To investigate in an in vivo system whether sphingolipids from the food do actually arrive in the large intestine and are not prematurely absorbed or metabolized, pig basic feed to which phytosphingosine (1 wt. %) was added was fed to a fistulated pig.
The feed was prepared by mixing a solution of phytosphingosine in ethanol with the feed and drying it in vacuo. Every hour, the intestinal content (chymus) at the end of the small intestine was separately collected and frozen dry. The dry intestinal contents were then extracted with chloroform/methanol (2:1, v/v). The extracts were then filtered over glass wool and evaporated under a nitrogen flow. The residues were examined for the presence of phytosphingosine, sphingosine, sphinganine and sphingomyelin by means of LC-MS.

[19] = tested on: Clostridium perfringens; assay: microbe, parasite or virus in culture; assay type: cell-based; conditions: 72 h, read-out: MIC, C. perfringens
[20] = tested on: Clostridium difficile; assay: MIC on agar plates (RCBA); assay type: cell-based; conditions: Clostridioides difficile; RCBA agar plate, anaerobic, 72 hours at 30° C.
[21] = tested on: Clostridium difficile; assay: Survival in liquid ileum medium; assay type: cell-based; conditions: within 200 minutes
[22] = tested on: Lactobacillus acidophilus; assay: Antimicrobial activity in small intestine model TIM-1; assay type: cell-based; conditions: 20 μg/ml of sphingolipid; lumen samples plated on Rogosa agar
[23] = tested on: Clostridium difficile; assay: as above; assay type: cell-based; conditions: 20 μg/ml of sphingolipid; lumen samples plated on Clostridium difficile agar
[24] = assay type: in vitro ADME
Protocol: as §1
To investigate whether sphingolipids from the food are transported through the small intestine without being absorbed or being chemically or enzymatically modified in the small intestine, phytosphingosine and sphinganine were mixed in a standard Tim-1 food and exposed to a TIM-1 treatment. Of each sphingolipid, 5 mg per 100 grams of food (0.005 wt. %) in the food were tested. After starting the TIM-1 digestion processes in the TIM-1 stomach, at the fixed times, lumen samples of 100 grams were taken. Also, dialysate samples were taken from the material which was transported through the semi-permeable TIM-1 membrane. The dialysate samples varied between 1428 and 1122 grams. […] Next to the samples, the exposure time in minutes is given.

[25] = tested on: Lactobacillus acidophilus; assay: Survival in liquid ileum medium; conditions: within 200 minutes
[26] = RCBA agar plate, anaerobic, 72 hours at 30° C.
[27] = ileum medium, absence of bile, 10 and 50 μg/ml
[28] = 60 min, 5 mg per 100 grams of food
[29] = 120 min, 5 mg per 100 grams of food
[30] = 180 min, 5 mg per 100 grams of food
[31] = 240 min, 5 mg per 100 grams of food

Molecule: glucosylceramide III
- MIC, S. enteritidis [1]: >365 µg/mL
- MIC, P. aeruginosa [2]: >365 µg/mL
- MIC, B. adolescentis [3]: >365 µg/mL
- MIC, Bif. spp. [4]: >365 µg/mL
- MIC, F. nucleatum [5, 26]: >365 µg/mL
- MIC, B. fragilis [6]: >365 µg/mL
- MIC, C. spp. [7]: >365 µg/mL
- Inhibition of the bacteria tested [8]: do not inhibit any of the bacteria tested
- MIC, L. monocytogenes [9]: >365 µg/mL
- MIC, S. suis type 2 [10]: >365 µg/mL
- MIC, B. cereus [11]: >365 µg/mL
- MIC, L. carnosum [12]: >365 µg/mL
- MIC, L. sake [13]: >365 µg/mL
- MIC, L. acidophilus [14]: >365 µg/mL
- MIC, L. casei [15]: >365 µg/mL
- MIC, E. hirae [16]: >365 µg/mL

Molecule: CCCCCCCCCCCCC/C=C/[C@@H](O)[C@@H](N)CO [Sphingosine, sphingosine]
- MIC [1]: > 731 µg/mL
- MIC [2]: > 731 µg/mL
- MIC [3]: < 6.3 µg/mL
- MIC [4]: < 6.3 µg/mL
- MIC [5, 26]: < 6.3 µg/mL
- MIC [6]: < 6.3 µg/mL
- MIC [7]: < 6.3 µg/mL
- Antimicrobial activity against Gram-positive bacteria [17]: killed; also recorded: strong antimicrobial activity
- Presence in the intestinal contents at the end of the small intestine [18]: No sphingosine could be demonstrated
- MIC [9]: < 6.3 µg/mL
- MIC [10]: < 6.3 µg/mL
- MIC [11]: < 6.3 µg/mL
- MIC [12]: < 6.3 µg/mL
- MIC [13]: < 6.3 µg/mL
- MIC [14]: < 6.3 µg/mL
- MIC [15]: < 6.3 µg/mL
- MIC [16]: 84 µg/mL (≈ 280 µM)

Molecule: CCCCCCCCCCCCC/C=C/[C@@H](O)[C@@H](N)COP(=O)([O-])OCC[N+](C)(C)C [Lysosphingomyelin, lysosphingomyelin]
- MIC, S. enteritidis [1]: >365 µg/mL
- MIC, P. aeruginosa [2]: >365 µg/mL
- MIC, B. adolescentis [3]: <3.1 µg/mL
- MIC, Bif. spp. [4]: 10 µg/mL (≈ 21.5 µM)
- MIC, F. nucleatum [5, 26]: >365 µg/mL
- MIC, B. fragilis [6]: 11.4 µg/mL (≈ 24.5 µM)
- MIC, C. spp. [7, 26]: <3.1 µg/mL
- Antimicrobial activity against Gram-positive bacteria ([17]; agar plates): killed; also recorded: strong antimicrobial activity
- MIC, L. monocytogenes [9]: <3.1 µg/mL
- MIC, S. suis type 2 [10]: <3.1 µg/mL
- MIC, B. cereus [11]: <3.1 µg/mL
- MIC, L. carnosum [12]: <3.1 µg/mL
- MIC, L. sake [13]: 20 µg/mL (≈ 43 µM)
- MIC, L. acidophilus [14]: 16.6 µg/mL (≈ 35.7 µM)
- MIC, L. casei [15]: >365 µg/mL
- MIC, E. hirae [16]: >365 µg/mL

Molecule: CC(=O)O.CCCCCCCCCCCCCCC[C@@H](O)[C@@H](N)CO [Sphinganine, sphinganine acetate]
- MIC [1]: > 731 µg/mL
- MIC [2]: > 731 µg/mL
- MIC [3]: > 73 µg/mL
- MIC [4]: 0.9 µg/mL
- MIC ([5]; 72 h): > 731 µg/mL
- MIC [6]: 0.3 µg/mL
- MIC [19]: > 36.5 µg/mL
- MIC [20]: > 73 µg/mL
- MIC [7]: > 73 µg/mL
- Antimicrobial activity against Gram-positive bacteria ([17]; agar plates, acetate): killed; also recorded: strong antimicrobial activity
- Killing of Clostridium difficile [21, 27]: virtually completely killed
- Killing of Clostridium difficile ([21]; liquid cultures, 50 ppm): for the larger part killed
- Antimicrobial activity against Lactobacillus acidophilus in TIM-1 [22]: no demonstrable antimicrobial activity
- Antimicrobial activity against Clostridium difficile in TIM-1 [23]: no demonstrable antimicrobial activity
- Transport through the TIM-1 system [24]: transported to the large intestine to a sufficient extent
- Concentration in TIM-1 sample: Dialysate ileum 0-120′ ([24]; 5 mg per 100 grams of food): 0 ng/mL
- Concentration in TIM-1 sample: Dialysate ileum 120-240′ ([24]; 5 mg per 100 grams of food): 0 ng/mL
- Concentration in TIM-1 sample: Dialysate jejunum 0-120′ ([24]; 5 mg per 100 grams of food): 0 ng/mL
- Concentration in TIM-1 sample: Dialysate jejunum 120-240′ ([24]; 5 mg per 100 grams of food): 0 ng/mL
- Concentration in TIM-1 sample: Food ([24]; 5 mg per 100 grams of food): 19360 ng/mL
- Concentration in TIM-1 sample: Residue jejunum/ileum + dialysis fluid ([24]; 5 mg per 100 grams of food): 8620 ng/mL
- Concentration in TIM-1 sample: Residue stomach/duodenum + dialysis fluid ([24]; 5 mg per 100 grams of food): 2730 ng/mL
- Share of the amount used found in the samples (rough mass balance) ([24]; 5 mg per 100 grams of food): approx. 20%
- Concentration in TIM-1 sample: Lumen ileum 60′ [24, 28]: 740 ng/mL
- Concentration in TIM-1 sample: Lumen jejunum 60′ [24, 28]: 8750 ng/mL
- Concentration in TIM-1 sample: Lumen ileum 120′ [24, 29]: 4520 ng/mL
- Concentration in TIM-1 sample: Lumen jejunum 120′ [24, 29]: 11510 ng/mL
- Concentration in TIM-1 sample: Lumen ileum 180′ [24, 30]: 5300 ng/mL
- Concentration in TIM-1 sample: Lumen jejunum 180′ [24, 30]: 12470 ng/mL
- Concentration in TIM-1 sample: Lumen ileum 240′ [24, 31]: 7910 ng/mL
- Concentration in TIM-1 sample: Lumen jejunum 240′ [24, 31]: 10460 ng/mL
- Presence in the intestinal contents at the end of the small intestine [18]: small amounts
- MIC [9]: < 6.3 µg/mL
- MIC [10]: < 6.3 µg/mL
- MIC [11]: < 6.3 µg/mL
- MIC [12]: < 0.3 µg/mL
- MIC [13]: > 70 µg/mL
- MIC [14]: 222 µg/mL
- MIC [15]: 246 µg/mL
- MIC [16]: > 731 µg/mL
- Killing of Lactobacillus acidophilus [25, 27]: virtually completely killed
- Killing of Lactobacillus acidophilus ([25]; liquid cultures, 50 ppm): for the larger part killed
